Results taken from patent US20120052122A1, “Treatment Of Chronic Obstructive Pulmonary Disease With Phosphodiesterase-4 Inhibitor” (Nycomed GmbH, priority 2010, published 2012).
Several values for one entry are separate records, joined by “and”; a condition that tells them apart may be missing. Equal values may be shown once. Read-outs that look alike come from different tables or passages of the source.

Assays:
[1] = Phase I studies, single oral doses of 2,500 mcg and 5,000 mcg; format: in vivo, human; conditions: single oral doses of 2,500 mcg and one single dose of 5,000 mcg
[2] = Plasma protein binding; format: in vitro ADME
[3] = tested on: B6C3F1 mice; experiment: Two year carcinogenicity study in B6C3F1 mice; format: in vivo, mouse; conditions: gavage up to 12 mg/kg/day (males), 18 mg/kg/day (females), two years
Description: No other treatment-related neoplastic findings were observed. Overall, the tumor-free level in the animals was 4 mg/kg/day.

[4] = tested on: patients with COPD and chronic cough and sputum production
Description: Their postbronchodilator FEV1 was 50% or less than the predicted value.
Patients could use short acting β2 agonists as needed and could continue treatment with long acting β2 agonists or short acting anti-cholinergic drugs at stable doses. However, inhaled corticosteroids and long acting anti-cholinergic drugs were not allowed during the study. Eligible patients were stratified according to their use of long acting β2 agonists and smoking status.
The primary endpoints were the change in prebronchodilator FEV1 during treatment and the rate of COPD exacerbations, defined as moderate if they required treatment with oral or parenteral corticosteroids, or severe if they were associated with hospital admission or death. […] Additionally, data for the total number of COPD exacerbations (as defined above together with episodes treated with antibiotics alone) and a range of spirometric outcomes were gathered.
A negative binominal regression analysis was done to assess the robustness of the results against the distributional assumptions. Data were analyzed in the two studies separately and in a pooled analysis. Changes were analyzed from baseline in prebronchodilator and postbronchodilator FEV1 using a repeated-measures analysis of covariance with all data available for patients during the 52-week treatment. (Reference 18) A Cox proportional hazard model was used to test for differences in time-to-event data. For analysis of the concentrations of C-reactive protein, an analysis of covariance model was used, with the method of the last observation carried forward for the log-transformed data for concentrations. For the regression models (analysis of covariance, Cox, and Poisson), the covariates included treatment, age, sex, smoking status (current or former smoker), country, and treatment with long acting β2 agonists. In the Cox analysis, country was included as a stratum. In the Poisson regression analysis, baseline postbronchodilator FEV1 (% of predicted value) was also included as a covariate. To address the issue of multiple comparisons, a hierarchical hypothesis-testing approach was adopted, If the primary outcomes were positive, the key secondary outcomes were tested in the order above. If a significant difference between treatments was not obtained for the primary or key secondary outcomes, all subsequent analyses were considered exploratory.
In the one-year trials, long-acting beta-2 agonists (LABA) were allowed and used in approximately 50% of the study population. The use of inhaled corticosteroids was terminated at randomization. Lung function (pre-bronchodilator forced expiratory volume in one second, FEV1) and the rate of moderate exacerbations (requiring intervention with systemic glucocorticosteroids) or severe exacerbations (resulting in hospitalization and/or leading to death) were primary endpoints. Secondary endpoints in both studies included further evaluation of exacerbations and lung function parameters, dyspnea, and use of reliever medication.

[5] = in vivo
[6] = tested on: patients with COPD; conditions: Reference 13; cited from earlier work
[7] = tested on: CYP 2B6; experiment: CYP 2B6 induction in vitro
[8] = tested on: animal models; experiment: Smoke-induced lung damage animal models; conditions: animal models in vivo
[9] = tested on: cytokines and reactive oxygen species from cells and lung tissue; experiment: Release of inflammatory mediators in experimental animals; conditions: cells and lung tissue in vitro and in vivo
[10] = Blood-brain barrier penetration of radiolabeled roflumilast in rats
[11] = tested on: patients with COPD and chronic cough and sputum production; experiment: M2-125 study: 52-week placebo-controlled trial of oral roflumilast 500 μg once a day
[12] = M2-124 and M2-125 pooled, 52 weeks
[13] = M2-124 and M2-125 pooled, 52 weeks, mean
[14] = M2-124 and M2-125 pooled, 52 weeks, mean (SE)
[15] = M2-124 and M2-125 pooled, Roflumilast vs Placebo
[16] = M2-124 and M2-125 pooled, Roflumilast vs Placebo, listed as roflumilast

## O=C(Nc1c(Cl)cncc1Cl)c1ccc(OC(F)F)c(OCC2CC2)c1 [Roflumilast, N-(3,5-dichloropyridin-4-yl)-3-cyclopropylmethoxy-4-difluoromethoxy-benzamide]
[1]
  Symptoms observed at an increased rate: headache, gastrointestinal disorders, dizziness, palpitations, lightheadedness, clamminess and arterial hypotension
[2]
  fraction unbound: ~0.01
[3]
  Tumors: No compound-related tumors
[4]; M2-124 and M2-125 pooled
  Change in C-reactive protein from baseline to last postrandomisation visit: 1.1; n = 1371 mg/L
  Median time to first exacerbation (moderate or severe) [IQR]: 80.0 (28.0-190.0) days
  Median time to second exacerbation (moderate or severe) [IQR]: 177.0 (92.0-262.0) days
  Time to mortality (mean, SD): 206.1 days
[4]; [12]
  Exacerbations moderate or severe, mean rate [95% CI]: 1.14 (1.05-1.24); per patient, per year
  Exacerbations moderate, mean rate [95% CI]: 0.99 (0.91-1.08); per patient, per year
  Exacerbations severe, mean rate [95% CI]: 0.12 (0.10-0.16); per patient, per year
  Exacerbations treated with systemic corticosteroids, antibiotics, or both, mean rate [95% CI]: 1.13 (1.04-1.23); per patient, per year
[4]; [13]
  Change in postbronchodillator FEV1/FVC: 0.517%
  Change in prebronchodillator FEV1/FVC: 0.247%
[4]; [14]
  Change in postbronchodillator FEF25-75: 21 (4); mL/s
  Change in postbronchodillator FEV1: 50 (6); mL
  Change in postbronchodillator FVC: 67 (10); mL
  Change in postbronchodillator PEF: 4.93 (1.05); L/min
  Change in prebronchodillator FEF25-75: 16 (4); mL/s
  Change in prebronchodillator FEV1: 40 (6); mL
  Change in prebronchodillator FVC: 64 (10); mL
  Change in prebronchodillator PEF: 3.69 (1.02); L/min
[4]; [15]
  Change in C-reactive protein from baseline to last postrandomisation visit, difference: Difference 1.0 mg/L
  Change in postbronchodillator FEF25-75, difference: Difference 19 mL/s
  Change in postbronchodillator FEV1, difference: Difference 55 mL
  Change in postbronchodillator FEV1/FVC, difference: Difference 0.426%
  Change in postbronchodillator FVC, difference: Difference 101 mL
  Change in postbronchodillator PEF, difference: Difference 4.72 L/min
  Change in prebronchodillator FEF25-75, difference: Difference 20 mL/s
  Change in prebronchodillator FEV1, difference: Difference 48 mL
  Change in prebronchodillator FEV1/FVC, difference: Difference 0.393%
  Change in prebronchodillator FVC, difference: Difference 98 mL
  Change in prebronchodillator PEF, difference: Difference 3.53 L/min
  EQ-5D total score, difference: 0.0023
  TDI focal score, difference: Difference 0.3
[4]; [16]
  Change in postbronchodillator FEV1, difference: 55 mL
  Change in prebronchodillator FEV1, difference: 48 mL
  TDI focal score, difference: 0.25
[4]; M2-124 and M2-125 pooled, mean
  EQ-5D total score: 0.0072
[4]; M2-124 and M2-125 pooled, mean (SE)
  TDI focal score: 0.7 (0.1);
[4]; human, in vivo
  Probability of withdrawal due to adverse events in the first 12 weeks: 8%
  Subsequent probability of withdrawal because of adverse events: 9%
[4]; human, in vivo, 52 weeks
  Adverse events reported, patients: 1040 (67%) number (%)
  Atrial fibrillation, patients: 17 (1%) number (%)
  Discontinuations associated with adverse events: 219 [14%] number [%]
  Reported cardiovascular adverse events: 108 [7%] number [%]
  Serious adverse events reported, patients: 301 (19%) number (%)
  Vomiting, patients: 17 (1%) number (%)
[4]; in vivo
  Incidence of pneumonia or other pulmonary infections: did not increase
  Mean absolute weight change over the 1-year period: -2.1 kg
  Neurological or cardiac toxicity: No significant neurological or cardiac toxicity
  Patients with a decrease of body weight: 62%
  Weight loss in patients not reporting diarrhea, nausea, vomiting, or headache: 2.02 kg
  Weight loss in patients reporting diarrhea, nausea, vomiting, or headache: 2.60 kg
[4]; pooled
  Number of patients experiencing a moderate exacerbation: 624
  Number of patients experiencing a severe exacerbation: 157
[4]; pooled analysis
  Estimated rate of moderate or severe exacerbations per patient per year, lower than placebo: 17%
  Exacerbations (excluding severe events) requiring systemic corticosteroids or antibiotics, or both, reduction vs placebo: 16%
[4]; pooled, compared to placebo, concomitant LABA
  Mean prebronchodilator FEV1 increase with long acting β2 agonist: 46 mL
[4]; pooled, compared to placebo, no concomitant LABA
  Mean prebronchodilator FEV1 increase without long acting β2 agonist: 50 mL
[5]; human
  Delay of tmax by food intake: one
  Plasma AUC: 28 ugxh/L
  Radioactivity recovered in the urine: about 70%
  Reduction of Cmax by food intake: approximately 40%
  Time of maximum plasma concentrations after dosing, range: 0.5 to 2 h
  Time to steady state plasma concentrations: approximately 4 days
[5]
  Effect of food intake on total PDE4 inhibitory activity: does not affect
  Time of maximum plasma concentrations after dosing: approximately one
[6]
  Airway inflammation, sputum neutrophil and eosinophil counts: reduces airway inflammation
[7]
  Induction of CYP 2B6: weak induction
[8]
  Smoke-induced destruction of lung parenchyma: reduced
[9]
  Release of inflammatory mediators (cytokines and reactive oxygen species): suppressed
[10]
  Penetration across the blood-brain barrier: low penetration
[11]
  Change in C-reactive protein from baseline to last postrandomisation visit: 1.1; n = 680 mg/L
  Median time to first exacerbation (moderate or severe) [IQR]: 73.0 (26.0-195.0); days
  Median time to second exacerbation (moderate or severe) [IQR]: 188.0 (84.0-281.0) days
  Number of patients needed to treat to prevent one moderate or severe exacerbation per year: 3.6 and 3.64
  Time to mortality (mean, SD): 201.0 days
[11]; 52 weeks
  Exacerbations moderate or severe, mean rate [95% CI]: 1.21 (1.07-1.36); per patient, per year
  Exacerbations moderate, mean rate [95% CI]: 1.04 (0.92-1.18); per patient, per year
  Exacerbations severe, mean rate [95% CI]: 0.14 (0.10-0.20); per patient, per year
  Exacerbations treated with systemic corticosteroids, antibiotics, or both, mean rate [95% CI]: 1.17 (1.04-1.31); per patient, per year
[11]; 52 weeks, mean
  Change in postbronchodillator FEV1/FVC: 0.552%
  Change in prebronchodillator FEV1/FVC: 0.200%
[11]; 52 weeks, mean (SE)
  Change in postbronchodillator FEF25-75: 21 (5); n = 724 mL/s
  Change in postbronchodillator FEV1: 44 (7); n = 724 mL
  Change in postbronchodillator FVC: 58 (13); mL
  Change in postbronchodillator PEF: 1.93 (1.49); L/min
  Change in prebronchodillator FEF25-75: 15 (5); n = 730 mL/s
  Change in prebronchodillator FEV1: 33 (7); n = 730 mL
  Change in prebronchodillator FVC: 60 (14); mL
  Change in prebronchodillator PEF: 0.75 (1.45); L/min
[11]; Roflumilast vs Placebo
  Adverse event Influenza, difference: −0.99% (−2.51 to 0.53)
  Adverse event Upper respiratory tract infection, difference: −0.57% (−2.75 to 1.62)
  Change in C-reactive protein from baseline to last postrandomisation visit, difference: Difference 1.1 mg/L
  Change in postbronchodillator FEF25-75, difference: Difference 29 (18 mL/s
  Change in postbronchodillator FEV1, difference: Difference 61 (44 mL
  Change in postbronchodillator FEV1/FVC, difference: Difference 0.668%
  Change in postbronchodillator FVC, difference: Difference 103 mL
  Change in postbronchodillator PEF, difference: Difference 5.07 L/min
  Change in prebronchodillator FEF25-75, difference: Difference 25 (13 mL/s
  Change in prebronchodillator FEV1, difference: Difference 58 (41 mL
  Change in prebronchodillator FEV1/FVC, difference: Difference 0.510%
  Change in prebronchodillator FVC, difference: Difference 108 mL
  Change in prebronchodillator PEF, difference: Difference 3.85 L/min
  EQ-5D total score, difference: Difference 0.0106
  TDI focal score, difference: Difference 0.3
[11]; Roflumilast vs Placebo, listed as roflumilast
  Change in prebronchodillator FVC, difference: 108 mL
[11]; mean
  EQ-5D total score: 0.0100
[11]; mean (SE)
  TDI focal score: 0.7 (0.1);
[11]; n = 778
  Adverse event Influenza, patients: 12 (2%) number (%)
